Assay [1] has as its target Bcl-xL (Homo sapiens (Human), UniProt Q07817). Description: Bcl-xL/Bim Fluorescence Resonance Energy Transfer Assay (FRET). It is filed as binding. In a few lines: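 IC50 values come from non-linear regression over an eleven-point compound titration. Each compound was first incubated with biotinylated Bcl-xL and Bim for 60 min at room temperature. FRET was then detected after a 30 min dark incubation with streptavidin-terbium.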

In assay [2] the target is Bcl-2 (Homo sapiens (Human), UniProt P10415). Description: Bcl-2/Bim Fluorescence Polarization Assay (FPA). The assay is classed as binding. (In general: Polarisation of emitted light reports the rotation of a fluorescent probe.)
Chain of Bcl-2 (P10415 whole entry): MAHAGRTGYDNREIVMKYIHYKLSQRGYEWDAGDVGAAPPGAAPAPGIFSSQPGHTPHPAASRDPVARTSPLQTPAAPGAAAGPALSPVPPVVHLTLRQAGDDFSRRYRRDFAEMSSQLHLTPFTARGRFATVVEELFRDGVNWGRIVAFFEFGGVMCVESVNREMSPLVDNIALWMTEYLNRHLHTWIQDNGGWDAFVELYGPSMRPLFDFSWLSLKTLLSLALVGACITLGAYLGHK

IC50 data for 14 molecules are collected here from patent publication US9346795B2, “Substituted sulfonamides useful as antiapoptotic Bcl inhibitors” (Bristol-Myers Squibb Company, priority 2011, dated 2016).

Each structure is given as a SMILES string.

Chain of Bcl-xL (Q07817 whole entry): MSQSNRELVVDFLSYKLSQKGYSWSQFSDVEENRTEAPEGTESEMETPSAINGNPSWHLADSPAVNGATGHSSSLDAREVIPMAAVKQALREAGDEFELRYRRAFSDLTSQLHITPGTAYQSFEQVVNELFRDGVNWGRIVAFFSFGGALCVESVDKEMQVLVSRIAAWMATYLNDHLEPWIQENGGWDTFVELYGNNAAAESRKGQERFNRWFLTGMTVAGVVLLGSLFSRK

`CCCCc1c(-c2ccc(C(=O)NS(=O)(=O)c3ccc4c(Cl)ccc(Br)c4c3)cc2C(=O)N2CCc3ccccc3C2)c(C(=O)OCC)nn1-c1ccc(Oc2cccc(Cl)c2)cc1` [Example 251, ethyl 4-(4-(8-bromo-5-chloronaphthalen-2-ylsulfonylcarbamoyl)-2-(1,2,3,4-tetrahydroisoquinoline-2-carbonyl)phenyl)-5-butyl-1-(4-(3-chlorophenoxy)phenyl)-1H-pyrazole-3-carboxylate]: the IC50 in assay [1] was 0.05 µM; in assay [2], 0.02 µM.

For `CCCCN(CCCC)C(=O)c1nn(-c2ccc(C(=O)NS(=O)(=O)c3ccc4c(c3)CCN4Cc3ccc(Cl)c(Cl)c3)cc2C(=O)N2Cc3ccccc3C[C@H]2CO)c(C)c1Cl` [Example 189, N,N-Dibutyl-4-chloro-1-(4-(1-(3,4-dichlorobenzyl)indolin-5-ylsulfonylcarbamoyl)-2-((S)-3-(hydroxymethyl)-1,2,3,4-tetrahydroisoquinoline-2-carbonyl)phenyl)-5-methyl-1H-pyrazole-3-carboxamide], the IC50 in assay [1] stood at 0.04 µM; in assay [2], 0.01 µM.

Turning to `CCCCN(CCCC)C(=O)c1nn(-c2ccc(C(=O)NS(=O)(=O)c3ccc4ccccc4c3)cc2C(=O)N2CCc3ccc(C(=O)O)cc3C2)c(C)c1Cl` [Example 100, 2-(2-(4-Chloro-3-(dibutylcarbamoyl)-5-methyl-1H-pyrazol-1-yl)-5-(naphthalen-2-ylsulfonylcarbamoyl)benzoyl)-1,2,3,4-tetrahydroisoquinoline-7-carboxylic acid], the IC50 came to 3.51 µM in assay [1] and 4.71 µM in assay [2].

With `CCCCN(CCCC)C(=O)c1nn(-c2ccc(C(=O)NS(=O)(=O)c3ccc4cccc(C#N)c4c3)cc2C(=O)N2CCc3ccccc3C2)c(C)c1Cl` [Example 8, N,N-dibutyl-4-chloro-1-(4-(8-cyanonaphthalen-2-ylsulfonylcarbamoyl)-2-(1,2,3,4-tetrahydroisoquinoline-2-carbonyl)phenyl)-5-methyl-1H-pyrazole-3-carboxamide], the IC50 worked out at 0.02 µM in assay [1] and 0.92 µM in assay [2].

For `CCCCN(CCCC)c1ncc(Cl)c(-c2ccc(C(=O)NS(=O)(=O)c3ccc4ccccc4c3)cc2C(=O)N2Cc3ccccc3C[C@H]2CO)n1` [Example 315, 4-(5-Chloro-2-(dibutylamino)pyrimidin-4-yl)-3-((S)-3-(hydroxymethyl)-1,2,3,4-tetrahydroisoquinoline-2-carbonyl)-N-(naphthalen-2-ylsulfonyl)benzamide], the figures for the IC50 in assay [1] and in assay [2] were 0.08 µM and 0.06 µM, respectively.

For the molecule `CCCCN(CCCC)C(=O)c1nn(-c2ccc(C(=O)NS(=O)(=O)c3ccc4ccccc4c3)cc2C(=O)N2Cc3ccccc3S(=O)(=O)C2)c(C)c1Cl` [Example 104, N,N-Dibutyl-4-chloro-1-(2-(1,1-dioxido-3,4-dihydro-2H-benzo[e][1,3]thiazine-3-carbonyl)-4-(naphthalen-2-ylsulfonylcarbamoyl)phenyl)-5-methyl-1H-pyrazole-3-carboxamide], the concentration for half-maximal inhibition (IC50) in assay [1] came out at 0.13 µM; in assay [2], 0.44 µM.

Turning to `CCCCN(CCCC)C(=O)c1nn(-c2ccc(C(=O)NS(=O)(=O)c3ccc4ccc(OC(C)C)cc4c3)cc2C(=O)N2CCc3ccccc3C2)c(C)c1Cl` [Example 24, N,N-dibutyl-4-chloro-1-(4-(7-isopropoxynaphthalen-2-ylsulfonylcarbamoyl)-2-(1,2,3,4-tetrahydroisoquinoline-2-carbonyl)phenyl)-5-methyl-1H-pyrazole-3-carboxamide], the IC50 in assay [1] was 0.02 µM; in assay [2], 0.05 µM.

Consider `CCCCN(CCCC)C(=O)c1nn(-c2ccc(C(=O)NS(=O)(=O)c3ccc4ccc(OCc5ccccc5)cc4c3)cc2C(=O)N2CCc3ccccc3C2)c(C)c1Cl` [Example 18, 1-(4-(7-(benzyloxy)naphthalen-2-ylsulfonylcarbamoyl)-2-(1,2,3,4-tetrahydroisoquinoline-2-carbonyl)phenyl)-N,N-dibutyl-4-chloro-5-methyl-1H-pyrazole-3-carboxamide], for which the IC50 in assay [1] turned out to be 0.03 µM; in assay [2] it was 0.01 µM.

With `CCCCN(Cc1ccc(Cl)c(Cl)c1)c1ncc(Cl)c(-c2ccc(C(=O)NS(=O)(=O)c3ccc4cccc(Cl)c4c3)cc2C(=O)N2CCc3ccccc3C2)n1` [Example 322, 4-(2-(Butyl (3,4-dichlorobenzyl)amino)-5-chloropyrimidin-4-yl)-N-(8-chloronaphthalen-2-ylsulfonyl)-3-(1,2,3,4-tetrahydroisoquinoline-2-carbonyl)benzamide], the IC50 came to 0.16 µM in assay [1] and 0.01 µM in assay [2].

Consider `CCCCN(CCCC)C(=O)c1nn(-c2ccc(C(=O)NS(=O)(=O)c3ccc4ccc(OCCCN5CCOCC5)cc4c3)cc2C(=O)N2CCc3ccccc3C2)c(C)c1Cl` [Example 34, N,N-dibutyl-4-chloro-5-methyl-1-(4-(7-(3-morpholinopropoxy)naphthalen-2-ylsulfonylcarbamoyl)-2-(1,2,3,4-tetrahydroisoquinoline-2-carbonyl)phenyl)-1H-pyrazole-3-carboxamide], for which the half-inhibitory concentration (IC50) in assay [1] was determined as 0.04 µM; in assay [2], 0.29 µM.

Turning to `CCCCc1c(-c2ccc(C(=O)NS(=O)(=O)c3ccc4ccccc4c3)cc2C(=O)N2CCc3ccccc3C2)c(CO)nn1-c1ccc(Oc2cccc(Cl)c2)cc1` [Example 243, 4-(5-butyl-1-(4-(3-chlorophenoxy)phenyl)-3-(hydroxymethyl)-1H-pyrazol-4-yl)-N-(naphthalen-2-ylsulfonyl)-3-(1,2,3,4-tetrahydroisoquinoline-2-carbonyl)benzamide], the 50% inhibitory concentration (IC50) in assay [1] turned out to be 0.02 µM; in assay [2], 0.00783 µM.

As to `CCCCN(Cc1ccc(-c2ccc(CC(=O)O)cc2)cc1)C(=O)c1nn(-c2ccc(C(=O)NS(=O)(=O)c3ccc4c(c3)CCN4Cc3ccc(Cl)c(Cl)c3)cc2C(=O)N2CCc3ccccc3C2)c(C)c1Cl` [Example 213, 2-(4′-((N-butyl-4-chloro-1-(4-(1-(3,4-dichlorobenzyl)indolin-5-ylsulfonylcarbamoyl)-2-(1,2,3,4-tetrahydroisoquinoline-2-carbonyl)phenyl)-5-methyl-1H-pyrazole-3-carboxamido)methyl)biphenyl-4-yl)acetic acid], the IC50 came out at 0.08 µM in assay [1] and 0.01 µM in assay [2].

Regarding `CCCN(CCC)c1nn(-c2ccc(C(=O)NS(=O)(=O)c3ccc4cccc(Cl)c4c3)cc2C(=O)N2Cc3ccccc3C[C@H]2CO)c(C(F)(F)F)c1Cl` [Example 195, 4-(4-Chloro-3-(dipropylamino)-5-(trifluoromethyl)-1H-pyrazol-1-yl)-N-(8-chloronaphthalen-2-ylsulfonyl)-3-((S)-3-(hydroxymethyl)-1,2,3,4-tetrahydroisoquinoline-2-carbonyl)benzamide], the values for the IC50 in assay [1] and in assay [2] were 0.29 µM and 0.03 µM, respectively.

For the molecule `CCCCN(C(=O)c1nn(-c2ccc(C(=O)NS(=O)(=O)c3ccc4ccccc4c3)cc2C(=O)N2CCc3ccccc3C2)c(C)c1Cl)c1ccc2c(c1)OCCO2` [Example 149, N-butyl-4-chloro-N-(2,3-dihydrobenzo[b][1,4]dioxin-6-yl)-5-methyl-1-(4-(naphthalen-2-ylsulfonylcarbamoyl)-2-(1,2,3,4-tetrahydroisoquinoline-2-carbonyl)phenyl)-1H-pyrazole-3-carboxamide], the values for the IC50 in assay [1] and in assay [2] were 0.03 µM and 0.07 µM, respectively.

The IC50 is the concentration at which inhibition is half-maximal.
